Assay: The drug is tested on Bacteroides fragilis strain: HMW610 for biotransformation. The drug concentrations were measured before and after a 12-h incubation by liquid-chromatography-coupled mass spectrometry (LC–MS)
Conditions: 2 µM

Compound | Bacterial Biotransformation
O=C(O)CCc1nc(-c2ccccc2)c(-c2ccccc2)o1 [OXAPROZIN] | Compound metabolized
Cc1ccc(S(=O)(=O)NC(=O)NN2CC3CCCC3C2)cc1 (stereo not given) [GLICLAZIDE] | Compound metabolized
O=c1[nH]c2ccccc2n1CCCN1CCC(n2c(=O)[nH]c3cc(Cl)ccc32)CC1 [DOMPERIDONE] | Compound NOT metabolized

Assay: The drug is tested on Ruminococcus torques strain: ATCC27756 for biotransformation. The drug concentrations were measured before and after a 12-h incubation by liquid-chromatography-coupled mass spectrometry (LC–MS)
Type: ADME
Design: dose 2 uM, timepoint 0 vs 12 hours
Conditions: 2 µM

Compound | Bacterial Biotransformation
O=C(O)CCc1nc(-c2ccccc2)c(-c2ccccc2)o1 [OXAPROZIN] | Compound NOT metabolized
Cc1ccc(S(=O)(=O)NC(=O)NN2CC3CCCC3C2)cc1 (stereo not given) [GLICLAZIDE] | Compound NOT metabolized
O=c1[nH]c2ccccc2n1CCCN1CCC(n2c(=O)[nH]c3cc(Cl)ccc32)CC1 [DOMPERIDONE] | Compound NOT metabolized

Assay: The drug is tested on Bacteroides pectinophilus strain: ATCC43243 for biotransformation. The drug concentrations were measured before and after a 12-h incubation by liquid-chromatography-coupled mass spectrometry (LC–MS)
Conditions: 2 µM

Compound | Bacterial Biotransformation
O=C(O)CCc1nc(-c2ccccc2)c(-c2ccccc2)o1 [OXAPROZIN] | Compound NOT metabolized
Cc1ccc(S(=O)(=O)NC(=O)NN2CC3CCCC3C2)cc1 (stereo not given) [GLICLAZIDE] | Compound NOT metabolized
O=c1[nH]c2ccccc2n1CCCN1CCC(n2c(=O)[nH]c3cc(Cl)ccc32)CC1 [DOMPERIDONE] | Compound NOT metabolized

Assay: The drug is tested on Enterobacter cancerogenus strain: ATCC35316 for biotransformation. The drug concentrations were measured before and after a 12-h incubation by liquid-chromatography-coupled mass spectrometry (LC–MS)
Conditions: 2 µM

Compound | Bacterial Biotransformation
O=C(O)CCc1nc(-c2ccccc2)c(-c2ccccc2)o1 [OXAPROZIN] | Compound NOT metabolized
Cc1ccc(S(=O)(=O)NC(=O)NN2CC3CCCC3C2)cc1 (stereo not given) [GLICLAZIDE] | Compound NOT metabolized
O=c1[nH]c2ccccc2n1CCCN1CCC(n2c(=O)[nH]c3cc(Cl)ccc32)CC1 [DOMPERIDONE] | Compound NOT metabolized

Assay: The drug is tested on Bacteroides ovatus strain: ATCC8483 for biotransformation. The drug concentrations were measured before and after a 12-h incubation by liquid-chromatography-coupled mass spectrometry (LC–MS)
Conditions: 2 µM

Compound | Bacterial Biotransformation
O=C(O)CCc1nc(-c2ccccc2)c(-c2ccccc2)o1 [OXAPROZIN] | Compound NOT metabolized
Cc1ccc(S(=O)(=O)NC(=O)NN2CC3CCCC3C2)cc1 (stereo not given) [GLICLAZIDE] | Compound NOT metabolized
O=c1[nH]c2ccccc2n1CCCN1CCC(n2c(=O)[nH]c3cc(Cl)ccc32)CC1 [DOMPERIDONE] | Compound NOT metabolized

Assay: The drug is tested on Blautia luti strain: DSM14534 for biotransformation. The drug concentrations were measured before and after a 12-h incubation by liquid-chromatography-coupled mass spectrometry (LC–MS)
Type: ADME
Design: dose 2 uM, timepoint 0 vs 12 hours
Conditions: 2 µM

Compound | Bacterial Biotransformation
O=C(O)CCc1nc(-c2ccccc2)c(-c2ccccc2)o1 [OXAPROZIN] | Compound NOT metabolized
Cc1ccc(S(=O)(=O)NC(=O)NN2CC3CCCC3C2)cc1 (stereo not given) [GLICLAZIDE] | Compound NOT metabolized
O=c1[nH]c2ccccc2n1CCCN1CCC(n2c(=O)[nH]c3cc(Cl)ccc32)CC1 [DOMPERIDONE] | Compound NOT metabolized

Conditions: enterocloster bolteae, 12 h, 2 µM
Description: The drug is tested on Clostridium bolteae strain: ATCCBAA-613 for biotransformation. The drug concentrations were measured before and after a 12-h incubation by liquid-chromatography-coupled mass spectrometry (LC–MS)

Compound | Bacterial Biotransformation
O=C(O)CCc1nc(-c2ccccc2)c(-c2ccccc2)o1 [OXAPROZIN] | Compound NOT metabolized
Cc1ccc(S(=O)(=O)NC(=O)NN2CC3CCCC3C2)cc1 (stereo not given) [GLICLAZIDE] | Compound NOT metabolized
O=c1[nH]c2ccccc2n1CCCN1CCC(n2c(=O)[nH]c3cc(Cl)ccc32)CC1 [DOMPERIDONE] | Compound NOT metabolized

Assay: The drug is tested on Dorea formicigenerans strain: ATCC27755 for biotransformation. The drug concentrations were measured before and after a 12-h incubation by liquid-chromatography-coupled mass spectrometry (LC–MS)
Conditions: 2 µM

Compound | Bacterial Biotransformation
O=C(O)CCc1nc(-c2ccccc2)c(-c2ccccc2)o1 [OXAPROZIN] | Compound NOT metabolized
Cc1ccc(S(=O)(=O)NC(=O)NN2CC3CCCC3C2)cc1 (stereo not given) [GLICLAZIDE] | Compound NOT metabolized
O=c1[nH]c2ccccc2n1CCCN1CCC(n2c(=O)[nH]c3cc(Cl)ccc32)CC1 [DOMPERIDONE] | Compound NOT metabolized

Assay: The drug is tested on Eubacterium rectale strain: ATCC33656 for biotransformation. The drug concentrations were measured before and after a 12-h incubation by liquid-chromatography-coupled mass spectrometry (LC–MS)
Conditions: agathobacter rectalis, 2 µM

Compound | Bacterial Biotransformation
O=C(O)CCc1nc(-c2ccccc2)c(-c2ccccc2)o1 [OXAPROZIN] | Compound NOT metabolized
Cc1ccc(S(=O)(=O)NC(=O)NN2CC3CCCC3C2)cc1 (stereo not given) [GLICLAZIDE] | Compound NOT metabolized
O=c1[nH]c2ccccc2n1CCCN1CCC(n2c(=O)[nH]c3cc(Cl)ccc32)CC1 [DOMPERIDONE] | Compound NOT metabolized

Assay: The drug is tested on Parabacteroides merdae strain: ATCC43184 for biotransformation. The drug concentrations were measured before and after a 12-h incubation by liquid-chromatography-coupled mass spectrometry (LC–MS)
Conditions: 2 µM

Compound | Bacterial Biotransformation
O=C(O)CCc1nc(-c2ccccc2)c(-c2ccccc2)o1 [OXAPROZIN] | Compound NOT metabolized
Cc1ccc(S(=O)(=O)NC(=O)NN2CC3CCCC3C2)cc1 (stereo not given) [GLICLAZIDE] | Compound NOT metabolized
O=c1[nH]c2ccccc2n1CCCN1CCC(n2c(=O)[nH]c3cc(Cl)ccc32)CC1 [DOMPERIDONE] | Compound NOT metabolized

Assay: The drug is tested on Collinsella intestinalis strain: DSM13280 for biotransformation. The drug concentrations were measured before and after a 12-h incubation by liquid-chromatography-coupled mass spectrometry (LC–MS)
Conditions: 2 µM

Compound | Bacterial Biotransformation
O=C(O)CCc1nc(-c2ccccc2)c(-c2ccccc2)o1 [OXAPROZIN] | Compound NOT metabolized
Cc1ccc(S(=O)(=O)NC(=O)NN2CC3CCCC3C2)cc1 (stereo not given) [GLICLAZIDE] | Compound NOT metabolized
O=c1[nH]c2ccccc2n1CCCN1CCC(n2c(=O)[nH]c3cc(Cl)ccc32)CC1 [DOMPERIDONE] | Compound NOT metabolized

Assay: The drug is tested on Edwardsiella tarda strain: ATCC23685 for biotransformation. The drug concentrations were measured before and after a 12-h incubation by liquid-chromatography-coupled mass spectrometry (LC–MS)
Conditions: 2 µM

Compound | Bacterial Biotransformation
O=C(O)CCc1nc(-c2ccccc2)c(-c2ccccc2)o1 [OXAPROZIN] | Compound NOT metabolized
Cc1ccc(S(=O)(=O)NC(=O)NN2CC3CCCC3C2)cc1 (stereo not given) [GLICLAZIDE] | Compound NOT metabolized
O=c1[nH]c2ccccc2n1CCCN1CCC(n2c(=O)[nH]c3cc(Cl)ccc32)CC1 [DOMPERIDONE] | Compound NOT metabolized

Assay: The drug is tested on Coprococcus comes strain: ATCC27758 for biotransformation. The drug concentrations were measured before and after a 12-h incubation by liquid-chromatography-coupled mass spectrometry (LC–MS)
Type: ADME
Design: dose 2 uM, timepoint 0 vs 12 hours
Conditions: 2 µM

Compound | Bacterial Biotransformation
O=C(O)CCc1nc(-c2ccccc2)c(-c2ccccc2)o1 [OXAPROZIN] | Compound NOT metabolized
Cc1ccc(S(=O)(=O)NC(=O)NN2CC3CCCC3C2)cc1 (stereo not given) [GLICLAZIDE] | Compound NOT metabolized
O=c1[nH]c2ccccc2n1CCCN1CCC(n2c(=O)[nH]c3cc(Cl)ccc32)CC1 [DOMPERIDONE] | Compound NOT metabolized

Assay: The drug is tested on Clostridium symbiosum strain: ATCC14940 for biotransformation. The drug concentrations were measured before and after a 12-h incubation by liquid-chromatography-coupled mass spectrometry (LC–MS)
Conditions: 2 µM

Compound | Bacterial Biotransformation
O=C(O)CCc1nc(-c2ccccc2)c(-c2ccccc2)o1 [OXAPROZIN] | Compound NOT metabolized
Cc1ccc(S(=O)(=O)NC(=O)NN2CC3CCCC3C2)cc1 (stereo not given) [GLICLAZIDE] | Compound NOT metabolized
O=c1[nH]c2ccccc2n1CCCN1CCC(n2c(=O)[nH]c3cc(Cl)ccc32)CC1 [DOMPERIDONE] | Compound NOT metabolized

Assay: The drug is tested on Subdoligranulum variabile strain: DSM15176 for biotransformation. The drug concentrations were measured before and after a 12-h incubation by liquid-chromatography-coupled mass spectrometry (LC–MS)
Conditions: 2 µM

Compound | Bacterial Biotransformation
O=C(O)CCc1nc(-c2ccccc2)c(-c2ccccc2)o1 [OXAPROZIN] | Compound NOT metabolized
Cc1ccc(S(=O)(=O)NC(=O)NN2CC3CCCC3C2)cc1 (stereo not given) [GLICLAZIDE] | Compound NOT metabolized
O=c1[nH]c2ccccc2n1CCCN1CCC(n2c(=O)[nH]c3cc(Cl)ccc32)CC1 [DOMPERIDONE] | Compound NOT metabolized

Conditions: bacteroides stercoris, 12 h, 2 µM
Description: The drug is tested on Bacteroides stercoris strain: ATCC43183 for biotransformation. The drug concentrations were measured before and after a 12-h incubation by liquid-chromatography-coupled mass spectrometry (LC–MS)

Compound | Bacterial Biotransformation
O=C(O)CCc1nc(-c2ccccc2)c(-c2ccccc2)o1 [OXAPROZIN] | Compound NOT metabolized
Cc1ccc(S(=O)(=O)NC(=O)NN2CC3CCCC3C2)cc1 (stereo not given) [GLICLAZIDE] | Compound NOT metabolized
O=c1[nH]c2ccccc2n1CCCN1CCC(n2c(=O)[nH]c3cc(Cl)ccc32)CC1 [DOMPERIDONE] | Compound NOT metabolized

Assay: The drug is tested on Bacteroides fragilis strain: ATCC43859 for biotransformation. The drug concentrations were measured before and after a 12-h incubation by liquid-chromatography-coupled mass spectrometry (LC–MS)
Conditions: 2 µM

Compound | Bacterial Biotransformation
O=C(O)CCc1nc(-c2ccccc2)c(-c2ccccc2)o1 [OXAPROZIN] | Compound metabolized
Cc1ccc(S(=O)(=O)NC(=O)NN2CC3CCCC3C2)cc1 (stereo not given) [GLICLAZIDE] | Compound metabolized
O=c1[nH]c2ccccc2n1CCCN1CCC(n2c(=O)[nH]c3cc(Cl)ccc32)CC1 [DOMPERIDONE] | Compound NOT metabolized

Assay: The drug is tested on Clostridium asparagiforme strain: DSM15981 for biotransformation. The drug concentrations were measured before and after a 12-h incubation by liquid-chromatography-coupled mass spectrometry (LC–MS)
Type: ADME
Design: dose 2 uM, timepoint 0 vs 12 hours
Conditions: enterocloster asparagiformis, 2 µM

Compound | Bacterial Biotransformation
O=C(O)CCc1nc(-c2ccccc2)c(-c2ccccc2)o1 [OXAPROZIN] | Compound metabolized
Cc1ccc(S(=O)(=O)NC(=O)NN2CC3CCCC3C2)cc1 (stereo not given) [GLICLAZIDE] | Compound NOT metabolized
O=c1[nH]c2ccccc2n1CCCN1CCC(n2c(=O)[nH]c3cc(Cl)ccc32)CC1 [DOMPERIDONE] | Compound NOT metabolized

Assay: The drug is tested on Alistipes indistinctus strain: DSM22520 for biotransformation. The drug concentrations were measured before and after a 12-h incubation by liquid-chromatography-coupled mass spectrometry (LC–MS)
Conditions: 2 µM

Compound | Bacterial Biotransformation
O=C(O)CCc1nc(-c2ccccc2)c(-c2ccccc2)o1 [OXAPROZIN] | Compound NOT metabolized
Cc1ccc(S(=O)(=O)NC(=O)NN2CC3CCCC3C2)cc1 (stereo not given) [GLICLAZIDE] | Compound NOT metabolized
O=c1[nH]c2ccccc2n1CCCN1CCC(n2c(=O)[nH]c3cc(Cl)ccc32)CC1 [DOMPERIDONE] | Compound NOT metabolized

Assay: The drug is tested on Bacteroides coprophilus strain: DSM18228 for biotransformation. The drug concentrations were measured before and after a 12-h incubation by liquid-chromatography-coupled mass spectrometry (LC–MS)
Conditions: 2 µM

Compound | Bacterial Biotransformation
O=C(O)CCc1nc(-c2ccccc2)c(-c2ccccc2)o1 [OXAPROZIN] | Compound NOT metabolized
Cc1ccc(S(=O)(=O)NC(=O)NN2CC3CCCC3C2)cc1 (stereo not given) [GLICLAZIDE] | Compound NOT metabolized
O=c1[nH]c2ccccc2n1CCCN1CCC(n2c(=O)[nH]c3cc(Cl)ccc32)CC1 [DOMPERIDONE] | Compound NOT metabolized

— ChEMBL document CHEMBL5303573, “Mapping human microbiome drug metabolism by gut bacteria and their genes” (Nature, 2019)
